Laboratory results: patent US9296734B2 (AMGEN INC., priority 2013, dated 2016)
pIC50: −log10 of the molar value. Where two headings read alike, the source gives them in different places.

Legend:
[1] = molecular target: Beta Secretase enzyme (BACE) (Homo sapiens (Human), UniProt P56817); assay: In vitro enzymatic BACE FRET assay; format: biochemical; conditions: read-out: BACE 1 FRET assay IC50
Method: In Vitro Enzymatic BACE FRET (Fluorescence Resonance Energy Transfer) Assay (Enzyme Assay Data in the Example Table I)
The assay buffer used in this screen is 0.05 M acetate, pH 4.2, 10% DMSO final, 100 uM genapol (which is a nonionic detergent, below its Critical Micelle Concentration). […] This assay is effectively started by the addition of FRET substrate (50 nM) and the combination is incubated for one hour. The FRET assay is terminated with by addition of Tris buffer, which raises the pH to neutrality, and the fluorescence is determined. The FRET substrate is a peptide with commercially available fluorophore and quencher, on opposite sides of the BACE cleavage site.

[2] = tested on: Aβ40 in conditioned medium of cells stably expressing Amyloid Precursor Protein (APP); assay: In vitro BACE cell-based assay (Aβ40 sandwich ELISA); conditions: Homo sapiens
Method: In Vitro BACE Cell-Based Assay
The cell-based assay measures inhibition or reduction of Aβ40 in conditioned medium of test compound treated cells expressing amyloid precursor protein.
Cells stably expressing Amyloid Precursor Protein (APP) were plated at a density of 40K cells/well in 96 well plates (Costar). The cells were cultivated for 24 hours at 37° C. and 5% CO2 in DMEM supplemented with 10% FBS. The test compounds were then added to cells in 10-point dose response concentrations with the starting concentration being either 100 μM or 10 μM. The compounds were diluted from stock solutions in DMSO and the final DMSO concentration of the test compounds on cells was 0.1%. After 24 h of incubation with the test compounds the supernatant conditioned media was collected and the Aβ 40 levels were determined using a sandwich ELISA. The IC50 of the compound was calculated from the percent of control or percent inhibition of Aβ 40 as a function of the concentration of the test compound.
The sandwich ELISA to detect Aβ 40 was performed in 96 well microtiter plates, which were pre-treated with goat anti-rabbit IgG (Pierce). The capture and detecting antibody pair that were used to detect Aβ 40 from cell supernatants were affinity purified pAb40 (Biosource) and biotinylated 6E10 (Signet Labs Inc.), respectively. The optimal concentration for the pAb40 antibody was 3 μg/ml in Superblock/TBS (Pierce) that was supplemented with 0.05% Tween 20 (Sigma).
Cellular supernatants were incubated with the capture antibody for 3 h at 4° C., followed by 3 wash steps in TBS-tween (0.05%). The detecting antibody incubation was for 2 h at 4° C., again followed by the wash steps as described previously. The final readout of the ELISA is Time-Resolved Fluorescence (counts per minute) using Delfia reagents Streptavidin-Europium and Enhancement solutions (Perkin Elmer) and the Victor 2 multilabel counter (Perkin Elmer).

Cathepsin D (Cat D) = Cathepsin D (Cat D) (Homo sapiens (Human), UniProt P07339); assay: In vitro enzymatic Cathepsin D (Cat D) FRET assay; format: biochemical; conditions: read-out: CatD IC50
How it was run: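 CHO-expressed recombinant Cat D cleaves a fluorophore/quencher FRET peptide (20 nM) in 0.05 M citrate pH 3.5, 5 mM CHAPS, 10% DMSO final, over 1 h. Tris addition neutralizes pH to stop the reaction; fluorescence read at excitation 500 nm, emission 580 nm.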

[3] = average IC50, BACE enzyme assay
[4] = HEK293, average IC50, HEK cell assay, read-out: HEK cell assay IC50
[5] = average IC50, cathepsin D enzyme assay
[6] = HEK293, average IC50, HEK cells, read-out: HEK cell assay IC50

Chain of Cathepsin D (Cat D) (P07339 65-412, species assumed): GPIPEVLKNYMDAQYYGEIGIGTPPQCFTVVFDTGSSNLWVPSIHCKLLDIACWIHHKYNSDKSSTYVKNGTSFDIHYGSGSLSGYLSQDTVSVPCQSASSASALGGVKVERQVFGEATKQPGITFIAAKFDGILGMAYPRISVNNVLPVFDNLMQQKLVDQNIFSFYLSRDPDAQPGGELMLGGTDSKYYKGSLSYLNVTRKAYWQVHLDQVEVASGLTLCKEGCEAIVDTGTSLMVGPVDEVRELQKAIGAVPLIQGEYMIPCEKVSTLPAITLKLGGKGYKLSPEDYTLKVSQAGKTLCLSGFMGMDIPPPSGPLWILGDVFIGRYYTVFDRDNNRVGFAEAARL
Chain of Beta Secretase enzyme (BACE) (P56817 46-501): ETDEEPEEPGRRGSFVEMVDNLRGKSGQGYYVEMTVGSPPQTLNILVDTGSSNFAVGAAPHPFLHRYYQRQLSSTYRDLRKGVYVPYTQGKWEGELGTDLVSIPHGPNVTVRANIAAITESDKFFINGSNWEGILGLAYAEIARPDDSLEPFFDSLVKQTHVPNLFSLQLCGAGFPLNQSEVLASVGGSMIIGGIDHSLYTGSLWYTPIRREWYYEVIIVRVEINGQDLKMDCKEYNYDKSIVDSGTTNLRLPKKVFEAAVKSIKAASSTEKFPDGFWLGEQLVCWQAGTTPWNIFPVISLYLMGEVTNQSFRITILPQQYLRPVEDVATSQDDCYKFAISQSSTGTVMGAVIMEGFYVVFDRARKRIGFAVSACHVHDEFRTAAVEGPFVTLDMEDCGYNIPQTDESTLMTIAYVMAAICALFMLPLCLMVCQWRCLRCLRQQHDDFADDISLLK

SMILES | pIC50 [1, 3] | pIC50 [2, 4] | pIC50 (Cathepsin D (Cat D); [5]) | pIC50 ([1]; average IC50) | pIC50 [2, 6] | pIC50 (Cathepsin D (Cat D); average IC50) | pIC50 ([2]; HEK293, read-out: HEK cell assay IC50)
CC#CCOc1cnc(C(=O)Nc2ccc(F)c([C@]3(CF)C[C@@H](C(F)(F)F)OC(N)=N3)c2)cn1 [Example 39, N-(3-((4S,6S)-2-amino-4-(fluoromethyl)-6-(trifluoromethyl)-5,6-dihydro-4H-1,3-oxazin-4-yl)-4-fluorophenyl)-5-(but-2-yn-1-yloxy)pyrazine-2-carboxamide] | 9.15 | 8.49 | < 3.40 |  |  |  | 
NC1=N[C@](CF)(c2cc(NC(=O)c3ncc(C(F)F)cc3Cl)ccc2F)C[C@@H](C(F)(F)F)O1 [Example 40, N-(3-((4S,6S)-2-amino-4-(fluoromethyl)-6-(trifluoromethyl)-5,6-dihydro-4H-1,3-oxazin-4-yl)-4-fluorophenyl)-3-chloro-5-(difluoromethyl)picolinamide] | 6.89 | 6.98 | < 3.40 |  |  |  | 
NC1=N[C@](CF)(c2cc(NC(=O)c3ccc(C(F)F)cn3)ccc2F)C[C@@H](C(F)(F)F)O1 [Example 41, N-(3-((4S,6S)-2-amino-4-(fluoromethyl)-6-(trifluoromethyl)-5,6-dihydro-4H-1,3-oxazin-4-yl)-4-fluorophenyl)-5-(difluoromethyl)picolinamide] | 7.14 | 7.06 | < 3.40 |  |  |  | 
Cc1cc(OC(F)F)cnc1C(=O)Nc1ccc(F)c([C@]2(CF)C[C@@H](C(F)(F)F)OC(N)=N2)c1 [Example 42, N-(3-((4S,6S)-2-amino-4-(fluoromethyl)-6-(trifluoromethyl)-5,6-dihydro-4H-1,3-oxazin-4-yl)-4-fluorophenyl)-5-(difluoromethoxy)-3-methylpicolinamide] | 7.59 | 7.29 | < 3.40 |  |  |  | 
COc1cc(Cl)cnc1C(=O)Nc1ccc(F)c([C@]2(CF)C[C@@H](C(F)(F)F)OC(N)=N2)c1 [Example 47] |  |  |  | 7.25 | 7.17 | < 3.40 | 
COc1cc(C#N)cnc1C(=O)Nc1ccc(F)c([C@]2(CF)C[C@@H](C(F)(F)F)OC(N)=N2)c1 [Example 48, N-(3-((4S,6S)-2-amino-4-(fluoromethyl)-6-(trifluoromethyl)-5,6-dihydro-4H-1,3-oxazin-4-yl)-4-fluorophenyl)-5-cyano-3-methoxypicolinamide] |  |  |  | 7.38 | 7.49 | < 3.40 | 
NC1=N[C@](CF)(c2cc(NC(=O)c3ccc(C#CC4CC4)cn3)ccc2F)C[C@@H](C(F)(F)F)O1 [Example 53, N-(3-((4S,6S)-2-amino-4-(fluoromethyl)-6-(trifluoromethyl)-5,6-dihydro-4H-1,3-oxazin-4-yl)-4-fluorophenyl)-5-(cyclopropylethynyl)picolinamid] | 7.64 | 6.71 | 2.52 |  |  |  | 
NC1=N[C@](CF)(c2cc(Nc3ncc(F)c4cc(C#CC5CC5)cnc34)ccc2F)C[C@@H](C(F)(F)F)O1 [Example 54, (4S,6S)-4-(5-((3-(cyclopropylethynyl)-5-fluoro-1,7-naphthyridin-8-yl)amino)-2-fluorophenyl)-4-(fluoromethyl)-6-(trifluoromethyl)-5,6-dihydro-4H-1,3-oxazin-2-amine] | 7.48 | 5.63 | < 3.88 |  |  |  | 
NC1=N[C@](CF)(c2cc(Nc3nccc4cc(C#CC5CC5)cnc34)ccc2F)C[C@@H](C(F)(F)F)O1 [Example 55, (4S,6S)-4-(5-((3-(cyclopropylethynyl)-1,7-naphthyridin-8-yl)amino)-2-fluorophenyl)-4-(fluoromethyl)-6-(trifluoromethyl)-5,6-dihydro-4H-1,3-oxazin-2-amine] | 7.01 | 5.99 | < 3.40 |  |  |  | 
NC1=N[C@](CF)(c2cc(NC(=O)c3ccc(F)cn3)ccc2F)C[C@@H](C(F)(F)F)O1 [Example 57, N-(3-((4S,6S)-2-amino-4-(fluoromethyl)-6-(trifluoromethyl)-5,6-dihydro-4H-1,3-oxazin-4-yl)-4-fluorophenyl)-5-fluoropicolinamide] |  |  |  | 7.14 | 6.97 | 2.39 | 
Cc1cc(Cl)cnc1C(=O)Nc1cnc(F)c([C@]2(C)C[C@@H](C(F)(F)F)OC(N)=N2)c1 [Example 61, N-(5-((4S,6S)-2-amino-4-methyl-6-(trifluoromethyl)-5,6-dihydro-4H-1,3-oxazin-4-yl)-6-fluoropyridin-3-yl)-5-chloro-3-methylpicolinamide] |  |  |  | 7.26 | 7.41 | < 3.40 | 
C[C@@]1(c2cc(NC(=O)c3ccc(F)cn3)cnc2F)C[C@@H](C(F)(F)F)OC(N)=N1 [Example 64, N-(5-((4S,6S)-2-amino-4-methyl-6-(trifluoromethyl)-5,6-dihydro-4H-1,3-oxazin-4-yl)-6-fluoropyridin-3-yl)-5-fluoropicolinamide] | 6.69 | 7.42 | < 3.40 |  |  |  | 
C[C@@]1(c2cc(NC(=O)c3ccc(OCC(F)(F)F)cn3)cnc2F)C[C@@H](C(F)(F)F)OC(N)=N1 [Example 65, N-(5-((4S,6S)-2-amino-4-methyl-6-(trifluoromethyl)-5,6-dihydro-4H-1,3-oxazin-4-yl)-6-fluoropyridin-3-yl)-5-(2,2,2-trifluoroethoxy)picolinamide] | 7.10 | 6.91 | 3.82 |  |  |  | 
C[C@@]1(c2cc(NC(=O)c3ncc(C#N)cc3Cl)cnc2F)C[C@@H](C(F)(F)F)OC(N)=N1 [Example 66, N-(5-((4S,6S)-2-amino-4-methyl-6-(trifluoromethyl)-5,6-dihydro-4H-1,3-oxazin-4-yl)-6-fluoropyridin-3-yl)-3-chloro-5-cyanopicolinamide] |  |  |  | 7.22 |  | < 3.40 | 7.45
Cc1cc(C#N)cnc1C(=O)Nc1cnc(F)c([C@]2(C)C[C@@H](C(F)(F)F)OC(N)=N2)c1 [Example 67, N-(5-((4S,6S)-2-amino-4-methyl-6-(trifluoromethyl)-5,6-dihydro-4H-1,3-oxazin-4-yl)-6-fluoropyridin-3-yl)-5-cyano-3-methylpicolinamide] |  |  |  | 7.46 | 7.64 | < 3.40 | 
C[C@@]1(c2cc(NC(=O)c3ncc(Cl)cc3Cl)cnc2F)C[C@@H](C(F)(F)F)OC(N)=N1 [Example 68, N-(5-((4S,6S)-2-amino-4-methyl-6-(trifluoromethyl)-5,6-dihydro-4H-1,3-oxazin-4-yl)-6-fluoropyridin-3-yl)-3,5-dichloropicolinamide] |  |  |  | 7.12 | 6.95 | < 3.40 | 
CC(C)n1cc(Cl)c(C(=O)Nc2cnc(F)c([C@]3(C)C[C@@H](C(F)(F)F)OC(N)=N3)c2)n1 [Example 71, N-(5-((4S,6S)-2-amino-4-methyl-6-(trifluoromethyl)-5,6-dihydro-4H-1,3-oxazin-4-yl)-6-fluoropyridin-3-yl)-4-chloro-1-isopropyl-1H-pyrazole-3-carboxamide] | 4.41 | 5.29 | < 3.40 |  |  |  | 
C[C@@]1(c2cc(NC(=O)c3nn(C(F)F)cc3Cl)cnc2F)C[C@@H](C(F)(F)F)OC(N)=N1 [Example 72, N-(5-((4S,6S)-2-amino-4-methyl-6-(trifluoromethyl)-5,6-dihydro-4H-1,3-oxazin-4-yl)-6-fluoropyridin-3-yl)-4-chloro-1-(difluoromethyl)-1H-pyrazole-3-carboxamide] | 7.62 | 7.51 | 3.07 |  |  |  | 
C[C@@]1(c2cc(Nc3ncnc4cc(Cl)cnc34)cnc2F)C[C@@H](C(F)(F)F)OC(N)=N1 [Example 74, (4S,6S)-4-(5-((7-chloropyrido[3,2-d]pyrimidin-4-yl)amino)-2-fluoropyridin-3-yl)-4-methyl-6-(trifluoromethyl)-5,6-dihydro-4H-1,3-oxazin-2-amine] |  |  |  | 7.06 | 7.42 | < 3.40 | 
